From patent publication US20260308149A1, “NOVEL CARBOXAMIDE DERIVATIVES” (ANGELINI PHARMA S.P.A., priority 2023, published 2026)

Target: T1, human Kv7.2 (Homo sapiens, UniProt O43526)
T1 construct: expressed in transfected cells
Assay: activation (potentiation) of Kv7.2 current, SyncroPatch 384 electrophysiology in CHO cells stably expressing human Kv7.2
Format: cell-based
Conditions: human Kv7.2 in CHO cells; in presence of 5.6 μM zinc pyrithione; % activation relative to 30 μM ML-213
Method: The potency of Kv7 potentiators was determined using the SyncroPatch 384 (Nanion) high throughput electrophysiology platform.
CHO cells stably expressing either human Kv7.2, Kv7.4 or Kv7.5/7.3 under a constitutive CMV promoter were used for these studies. Cells were maintained in F12 Hams+1 mM L-glutamine (Hyclone) supplemented with 10% FBS (Sigma), 0.3×NEAA (Non-essential Gamino-acids) and 400 ug/ml G418 at 37° C. in 5% CO2. Cells were cultured in T-225 flasks (Nunc) for 2-3 days to reach 85-95% confluence prior to electrophysiological recording.
Earle's balanced salt solution (in mM): 135 NaCl, 5.4 KCl, 5 Glucose, 2 CaCl2), 1 MgCl2, 5 HEPES, pH 7.4. Seal enhancer solution (in mM): 90 NaCl, 3 KCl, 35 CaCl2), 10 MgCl2, 10 HEPES, pH 7.4. Extracellular recording solution (in mM): 71 NaCl, 70 NMDG, 13 KCl. 5 Glucose, 2 CaCl2, 1 MgCl2, 10 HEPES, pH 7.4. Intracellular recording solution (in mM): 130 KF, 20 KCl, 4 EGTA, 10 HEPES, 2 EDTA, 0.01 Escin, pH 7.2.
Cells were harvested for electrophysiological recording upon reaching appropriate confluence. Cells were first washed in DPBS (Hyclone, Cat #SH30028.03) and then 2 ml of Accutase (MP Biomedicals #1000449) was added at 28° C. until ~90% of cells were suspended. F12 HAM's media+1 mM L-glutamine (Hyclone, SH30026.02) was then added to the flask to dilute the accutase. Cells were then triturated until a single cell suspension was achieved, a cell count was performed, and cells were centrifuged for 2 min. at 1,000 rpm. Media was then aspirated, and cells were resuspended in Earle's balanced salt solution to a concentration of 0.75×10^6 cells/ml and allowed to recover for 25 min at 10° C.
At the beginning of each assay, 20 μl of cell suspension was dispensed into each well of a multi-hole 384-well SyncroPatch chip by the onboard pipettor. Cell sealing was initiated, and seal enhancer solution was added to facilitate seal formation. Upon completion of sealing, cells were washed 3 times with extracellular recording solution and the assay voltage protocol was started. Human Kv7.2, Kv7.4 or Kv7.5/7.3 channels were evaluated using a voltage protocol in which cells were voltage-clamped at a holding potential of −60 mV. Potassium currents were continuously activated with a series of three voltage steps to −30 mV for 3 seconds, 40 mV for 1 second and −90 mV for 4 seconds with 12 seconds between successive voltage sweeps. Potassium currents were measured from the −90 mV repolarizing step. Baseline current was assessed for 3.5 minutes prior to the addition of 5.6 μM zinc pyrithione (1 μM for Kv7.4). Kv7.2, Kv7.4 or Kv7.5/7.3 current in the presence of zinc pyrithione was acquired over five minutes to allow channels to reach steady state activity prior to addition of test agents. Channel activity was monitored for three minutes preceding the addition of 30 μM ML-213 (3 minutes) to achieve maximum activation. 150 mM TEA with 10 μM XE-991 was applied for 2 minutes to measure the leak current during maximum inhibition of Kv7.2, Kv7.4 or Kv7.5/7.3 channels.
Data were collected on the SyncroPatch platform using PatchControl software (Nanion) and processed and analyzed using DataControl Software (Nanion). Percent activation was calculated from potassium current as follows: The average current for the 5 sweeps in the presence of zinc pyrithione immediately preceding test agent addition was taken as the ‘control’ data. Likewise, the average potassium current in the presence of test agents 5 sweeps immediately preceding addition of 30 μM ML-213 was determined for ‘drug’ data. The average potassium current 5 sweeps immediately prior to addition of 150 mM TEA+10 μM XE-991 was determined for ‘max activation’ data while average currents from 5 sweeps immediately following addition of TEA was determined for ‘max inhibition’ data. Percent activation for each of the 384-wells of a sealchip was calculated as ((‘drug’−‘max inhibition’)/(‘max activation’−‘max inhibition’))*100 with Pipeline Pilot (Accelrys). […]

T1 sequence (O43526 whole entry): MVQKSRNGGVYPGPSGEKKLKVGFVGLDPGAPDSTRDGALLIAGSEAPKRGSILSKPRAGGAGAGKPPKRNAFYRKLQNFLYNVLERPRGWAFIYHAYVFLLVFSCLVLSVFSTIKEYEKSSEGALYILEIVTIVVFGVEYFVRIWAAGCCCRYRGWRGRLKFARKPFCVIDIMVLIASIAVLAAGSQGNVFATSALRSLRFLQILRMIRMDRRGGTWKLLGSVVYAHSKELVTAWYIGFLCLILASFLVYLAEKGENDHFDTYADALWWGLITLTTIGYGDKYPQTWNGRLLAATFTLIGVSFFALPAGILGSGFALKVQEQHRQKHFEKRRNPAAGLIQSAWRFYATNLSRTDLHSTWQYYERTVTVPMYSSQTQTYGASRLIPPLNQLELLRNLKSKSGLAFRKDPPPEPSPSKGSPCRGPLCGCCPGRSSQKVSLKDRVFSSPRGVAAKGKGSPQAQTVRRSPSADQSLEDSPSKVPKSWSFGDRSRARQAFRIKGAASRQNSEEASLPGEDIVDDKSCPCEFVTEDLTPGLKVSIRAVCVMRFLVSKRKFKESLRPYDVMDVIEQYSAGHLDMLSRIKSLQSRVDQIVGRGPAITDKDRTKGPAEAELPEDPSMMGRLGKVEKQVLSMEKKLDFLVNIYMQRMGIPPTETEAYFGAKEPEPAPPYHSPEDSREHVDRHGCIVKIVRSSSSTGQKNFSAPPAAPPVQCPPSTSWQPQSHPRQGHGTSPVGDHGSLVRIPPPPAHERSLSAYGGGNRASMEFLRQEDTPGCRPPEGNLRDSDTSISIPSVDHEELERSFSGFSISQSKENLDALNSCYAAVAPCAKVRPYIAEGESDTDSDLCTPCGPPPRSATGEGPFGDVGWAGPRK

| EC50 [nM] | Structure (SMILES) |
| --- | --- |
| 7510 | COC(C)(CNC(=O)/C=C/c1ccccc1F)c1cccc(Cl)c1 (centres unmarked) [Example 47, (E)-N-[2-(3-chlorophenyl)-2-methoxy-propyl]-3-(2-fluorophenyl)prop-2-enamide] |
| 3270 | COC(C)(CNC(=O)NC1CC=CC1)c1cccc(Cl)c1 (centres unmarked) [Example 30, 1-[2-(3-chlorophenyl)-2-methoxy-propyl]-3-cyclopent-3-en-1-yl-urea] |
| 170 | COC(C)(CNC(=O)N[C@H]1CC2CCC1C2)c1cccc(Cl)c1 (mixture of isomers) [Example 25, 1-[2-(3-chlorophenyl)-2-methoxy-propyl]-3-[rac-(1S,2S,4R)-norbornan-2-yl]urea] |
| 960 | N#Cc1cccc(C2(CNC(=O)CC3CCCCC3)CCC(=O)O2)c1 (centres unmarked) [Example 90, N-[[2-(3-cyanophenyl)-5-oxo-tetrahydrofuran-2-yl]methyl]-2-cyclohexyl-acetamide] |
| 1980 | COC(C)(CNC(=O)NCCCc1ccccc1)c1cccc(Cl)c1 (centres unmarked) [Example 32, 1-[2-(3-chlorophenyl)-2-methoxy-propyl]-3-(3-phenylpropyl)urea] |
| 1280 | N#Cc1cccc([C@@]2(CNC(=O)CC3CC4CCC3C4)CCO2)c1 (stereo partly drawn) [Example 97, N-[[(2R)-2-(3-cyanophenyl)oxetan-2-yl]methyl]-2-norboman-2-yl-acetamide] |
| 2920 | CC(C)OC(CNC(=O)NC1CCCC1)c1cccc(Br)c1 (centres unmarked) [Example 24, 1-[2-(3-bromophenyl)-2-isopropoxy-ethyl]-3-cyclopentyl-urea] |
| 410 | N#Cc1cccc([C@]2(CNC(=O)CC3CC4CCC3C4)CCO2)c1 (stereo partly drawn) [Example 108, N-[[(2S)-2-(3-cyanophenyl)oxetan-2-yl]methyl]-2-norbornan-2-yl-acetamide] |
| 1650 | COc1cccc(NC(=O)NCC2(c3cccc(Cl)c3)CCO2)c1 (centres unmarked) [Example 50, 1-[[2-(3-chlorophenyl)oxetan-2-yl]methyl]-3-(3-methoxyphenyl)urea] |
| 290 | CO[C@@](C)(CNC(=O)C1CC12CCCCC2)c1cccc(Cl)c1 (stereo partly drawn) [Example 82, N-[(2R)-2-(3-chlorophenyl)-2-methoxy-propyl]spiro[2.5]octane-2-carboxamide] |
| 1040 | COc1cccc(NC(=O)NCC(C)(OC)c2cccc(Cl)c2)c1 (centres unmarked) [Example 5, 1-[2-(3-chlorophenyl)-2-methoxy-propyl]-3-(3-methoxyphenyl)urea] |
| 510 | N#Cc1cccc([C@]2(CNC(=O)C3CCCC34CCC4)CCO2)c1 (stereo partly drawn) [Example 104, N-[[(2S)-2-(3-cyanophenyl)oxetan-2-yl]methyl]spiro[3.4]octane-8-carboxamide] |
| 110 | O=C(NC[C@@]1(c2cccc(Cl)c2)CCO1)[C@H]1C[C@@H]1c1ccccc1 [Example 40, (1S,2S)-N-[[(2S)-2-(3-chlorophenyl)oxetan-2-yl]methyl]-2-phenyl-cyclopropanecarboxamide] |
| 260 | N#Cc1cccc([C@]2(CNC(=O)[C@H]3C[C@@H]3C3CCC3)CCO2)c1 (mixture of isomers) [Example 101, (1SR,2RS)—N-[[(2S)-2-(3-cyanophenyl)oxetan-2-yl]methyl]-2-cyclobutyl-cyclopropanecarboxamide] |
| 400 | N#Cc1cccc([C@]2(CNC(=O)C3CC3C3CCC(F)(F)CC3)CCO2)c1 (stereo partly drawn) [Example 136, N-[[(2S)-2-(3-cyanophenyl)oxetan-2-yl]methyl]-2-(4,4-difluorocyclohexyl)cyclopropanecarboxamide] |
| 4240 | O=C(NCC1(c2ccnc(OC(F)F)c2)CCO1)[C@H]1C[C@@H]1C(F)(F)F (stereo partly drawn) [Example 129, (1S,2S)—N-[[2-[2-(difluoromethoxy)-4-pyridyl]oxetan-2-yl]methyl]-2-(trifluoromethyl)cyclopropanecarboxamide] |

| EC50 [nM] | Structure (SMILES) |
| --- | --- |
| 790 | N#Cc1cccc([C@@]2(CNC(=O)[C@H]3C[C@@H]3c3ccccc3)CCO2)c1 [Example 55, (1S,2S)-N-[[(2R)-2-(3-cyanophenyl)oxetan-2-yl]methyl]-2-phenyl-cyclopropanecarboxamide] |
| 1050 | CC(C)(C)CNC(=O)NCC1(c2cccc(Cl)c2)CCO1 (centres unmarked) [Example 60, 1-[[2-(3-chlorophenyl)oxetan-2-yl]methyl]-3-(2,2-dimethylpropyl)urea] |
| 3550 | COC(C)(CNC(=O)NC1COC2(CCCC2)C1)c1cccc(Cl)c1 (centres unmarked) [Example 13, 1-[2-(3-chlorophenyl)-2-methoxy-propyl]-3-(1-oxaspiro[4.4]nonan-3-yl)urea] |
| 1430 | COC(C)(CNC(=O)NCc1cccc(C)c1)c1cccc(Cl)c1 (centres unmarked) [Example 11, 1-[2-(3-chlorophenyl)-2-methoxy-propyl]-3-(m-tolylmethyl)urea] |
| 3940 | COc1ccc(CCNC(=O)NCC(C)(OC)c2cccc(Cl)c2)cc1 (centres unmarked) [Example 34, 1-[2-(3-chlorophenyl)-2-methoxy-propyl]-3-[2-(4-methoxyphenyl)ethyl]urea] |
| 1860 | COC(C)(CNC(=O)NCc1cccs1)c1cccc(Cl)c1 (centres unmarked) [Example 33, 1-[2-(3-chlorophenyl)-2-methoxy-propyl]-3-(2-thienylmethyl)urea] |
| 420 | O=C(NCc1cccc(Cl)c1)NCC1(c2cccc(Cl)c2)CCO1 (centres unmarked) [Example 62, 1-[(3-chlorophenyl)methyl]-3-[[2-(3-chlorophenyl)oxetan-2-yl]methyl]urea] |
| 2790 | N#Cc1cccc(C2(CNC(=O)CC3CCCCC3)COC2)c1 [Example 89, N-[[3-(3-cyanophenyl)oxetan-3-yl]methyl]-2-cyclohexyl-acetamide] |
| 8240 | O=C(CC1(C(F)(F)F)CC1)NCC1(c2cccc(OC(F)F)n2)CCO1 (centres unmarked) [Example 132, N-[[2-[6-(difluoromethoxy)-2-pyridyl]oxetan-2-yl]methyl]-2-[1-(trifluoromethyl)cyclopropyl]acetamide] |
| 1740 | O=C(NCC1(c2cccc(Cl)n2)CCO1)[C@H]1C[C@@H]1c1ccccc1 (stereo partly drawn) [Example 76, (1S,2S)—N-[[2-(6-chloro-2-pyridyl)oxetan-2-yl]methyl]-2-phenyl-cyclopropanecarboxamide] |
| 870 | O=C(NCC1CCCC1)NCC1(c2cccc(Cl)c2)COC1 [Example 72, 1-[[3-(3-chlorophenyl)oxetan-3-yl]methyl]-3-(cyclopentylmethyl)urea] |
| 790 | O=C(NCC(OCC(F)(F)F)c1cccc(Cl)c1)NC1C[C@H]2CC[C@@H]1C2 (mixture of isomers) [Example 45, 1-[2-(3-chlorophenyl)-2-(2,2,2-trifluoroethoxy)ethyl]-3-[rac-(1R,4S)-norbornan-2-yl]urea] |
| 2580 | CCOC(CNC(=O)NC1CCCC1)c1cccc(Br)c1 (centres unmarked) [Example 28, 1-[2-(3-bromophenyl)-2-ethoxy-ethyl]-3-cyclopentyl-urea] |
| 60 | CO[C@@](C)(CNC(=O)[C@H]1C[C@@H]1c1ccccc1)c1cccc(Cl)c1 [Example 2, (1S,2S)-N-[(2R)-2-(3-chlorophenyl)-2-methoxy-propyl]-2-phenyl-cyclopropanecarboxamide] |
| 5520 | O=C(NCC1(c2ccnc(OC(F)F)c2)CCO1)C1CC12CCC(F)(F)CC2 (centres unmarked) [Example 118, N-[[2-[2-(difluoromethoxy)-4-pyridyl]oxetan-2-yl]methyl]-6,6-difluoro-spiro[2.5]octane-2-carboxamide] |

| Structure (SMILES) | EC50 [nM] |
| --- | --- |
| CC(C)(C)O[C@H]1C[C@@H]1C(=O)NC[C@@]1(c2cccc(C#N)c2)CCO1 (mixture of isomers) [Example 114, (1SR,2SR)-2-tert-butoxy-N-[[(2S)-2-(3-cyanophenyl)oxetan-2-yl]methyl]cyclopropanecarboxamide] | 7520 |
